# Assay results published in patent US10603298B2, “Succinate dehydrogenase inhibitors (SDHi's)” (Medical Research Council, priority 2014, dated 2020).
# Columns and labels:
# [1] = Malonate level in the ischaemic myocardium after i.v. dimethyl malonate (LC-MS); design: species or system mouse; details: intravenous infusion of dimethyl malonate in vivo
# Experimental: In addition, as shown in FIG. 5a the cell permeability of the compound may be determined by comparing the level of the compound in an untreated cell with that of a treated cell. Typically, the level of the compound may be determined using LC/MS as detailed in the metabolomic analysis in the Examples.
# Infarct size was assessed after 30 min of ischaemia followed by 120 min reperfusion using 2% triphenyltetrazolium chloride staining and is expressed as a percentage of the risk zone^33. […] Control mice were infused with sterile saline. The total volume administered never exceeded 200 μL/mouse.
# Equal amounts wet weight murine tissue were lysed in 250 μL extraction solution (ES; 30% acetonitrile, 50% methanol and 20% water) per 10 mg tissue in Precellysis 24 vials, following the manufacturer's instructions. […] For the LC separation, column A was Sequant Zic-Hilic (150 mm×4.6 mm, internal diameter 3.5 μm) with a guard column (20 mm×2.1 mm 3.5 μm) from HiChrom, Reading, UK. […] Gradient: 0-3 min 80% B, 25 min 20% B, 26 min 80% B, 36 min 80% B. Column B was sequant Zic-pHilic (150 mm×2.1 mm i.d. 3.5 μm) with guard column (20 mm×2.1 mm i.d. […]) from HiChrom, Reading, UK. […] Spectra were analysed using both targeted and untargeted approaches. […] The arrays of spectra were then statistically analysed using the functions explore.data and univariate of the R package mum a^40.
# [2] = tested on: succinate accumulation in the ischaemic myocardium; assay: Succinate accumulation in the ischaemic myocardium in vivo (LC-MS); details: i.v. infusion in vivo, mouse; 30 min ischaemia
# Experimental: For the in vivo heart IR model an open-chest, in situ heart model was used^31,32. Male mice (8-10 weeks; Charles River Laboratories, UK) were anaesthetised with sodium pentobarbital (70 mg/kg intraperitoneally (i.p.)), intubated endotracheally and ventilated with 3 cm H2O positive-end expiratory pressure. Adequacy of anaesthesia was monitored using corneal and withdrawal reflexes. Ventilation frequency was kept at 110 breaths per minute with tidal volume between 125-150 μL. A thoracotomy was performed and the heart exposed by stripping the pericardium. A prominent branch of the left anterior descending coronary artery (LAD) was surrounded by a 7-0 Prolene suture that was then passed through a small plastic tube. Ischaemia was induced by tightening the tubing against the heart surface. To assess metabolites during IR in vivo, mice were divided into three groups: 30 min ischaemia, 30 min ischaemia plus 5 min reperfusion and 30 min sham-operation in which the suture was placed but the LAD was not occluded. At the end of each protocol tissue was removed from the at risk and peripheral areas of the heart, selected visually by comparing white versus red tissue, and snap-frozen in liquid nitrogen. Sham-operated tissue was removed from the presumed risk zone. Infarct size was assessed after 30 min of ischaemia followed by 120 min reperfusion using 2% triphenyltetrazolium chloride staining and is expressed as a percentage of the risk zone^33. […] For the LC separation, column A was Sequant Zic-Hilic (150 mm×4.6 mm, internal diameter 3.5 μm) with a guard column (20 mm×2.1 mm 3.5 μm) from HiChrom, Reading, UK. […] (150 mm×2.1 mm i.d. 3.5 μm) with guard column (20 mm×2.1 mm i.d. […]) from HiChrom, Reading, UK. […] Spectra were analysed using both targeted and untargeted approaches. For the targeted approach spectra were analysed using XCalibur Qual Browser and XCalibur Quan Browser softwares (Thermo Scientific) by referencing to an internal library of compounds. […] The arrays of spectra were then statistically analysed using the functions explore.data and univariate of the R package mum a^40.
compound,measurement,setting,value
COC(=O)CC(=O)OC [dimethyl malonate],accumulation of malonate in the ischaemic myocardium,[1],results in accumulation of malonate
same,succinate accumulation in the ischaemic myocardium,[2],strikingly decreased succinate accumulation
